For this experiment, the target named is γ-secretase (Homo sapiens, UniProt P49768). In words: Screening for γ-secretase-modulating activity, Aβ42 in SKNBE2 cells carrying APP 695 wild type. The format is cell-based. As to conditions: read-out: WTAPP SKNBE2 Aβ 42% Inhibition at 3 μM. On the procedure: Screening of the Compounds of the Invention for γ-Secretase-Modulating Activity
Cells were grown to near confluency.

As usually defined, the inhibition is the change of the read-out against control, counted positive when it falls. With `CC(C)CC(C(=O)O)c1cc(-c2ccc(C(F)(F)F)cc2)cc(-c2ccc(F)cc2F)c1` (centres unmarked) [Compound 2, 2-(2,4-Difluoro-4″-trifluoromethyl-[1,1′;3′,1″]terphenyl-5′-yl)-4-methyl-pentanoic acid], the inhibition at 3 µM was found to be 53%.

As for `CC(C)CC(C(=O)O)c1cc(-c2ccc(C(F)(F)F)cc2)cc(-c2cccc(C(F)(F)F)c2)c1` (centres unmarked) [Compound 12, 2-(3,4″-Bis-trifluoromethyl-[1,1′;3′,1″]terphenyl-5′-yl)-4-methyl-pentanoic acid], the inhibition at 3 µM came out at 86%.

As for `CC(C)CC(C(=O)O)c1cc(-c2ccc(C#N)cc2)cc(-c2cc(C(F)(F)F)cc(C(F)(F)F)c2)c1` (centres unmarked) [Compound 37, 2-(4-Cyano-3″,5″-bis-trifluoromethyl-[1,1′;3′,1″]terphenyl-5′-yl)-4-methyl pentanoic acid], the inhibition at 3 µM stood at 84%.

Turning to `CC(C)CC(C(=O)O)c1cc(-c2ccc(C(F)(F)F)cc2)cc(-c2cc(F)cc(C#N)c2)c1` (centres unmarked) [Compound 36, 2-(5-Cyano-3-fluoro-4″-trifluoromethyl-[1,1′;3′,1″]terphenyl-5′-yl)-4-methyl-pentanoic acid], the inhibition at 3 µM came to 0%.

Take `CC(C)CC(C(=O)O)c1cc(-c2cccc(C#N)c2)cc(-c2cc(C(F)(F)F)cc(C(F)(F)F)c2)c1` (centres unmarked) [Compound 34, 2-(3-Cyano-3″,5″-bis-trifluoromethyl-[1,1′;3′,1″]terphenyl-5′-yl)-4-methyl pentanoic acid]: the inhibition at 3 µM amounted to 73%.

As for `CC(=O)c1ccc(-c2cc(-c3ccc(C(F)(F)F)cc3)cc(C(CC(C)C)C(=O)O)c2)cc1` (centres unmarked) [Compound 48, 2-(4-Acetyl-4″-trifluoromethyl-[1,1′;3′,1″]terphenyl-5′-yl)-4-methyl-pentanoic acid], the inhibition at 3 µM amounted to 18%.

With `CC(C)CC(C(=O)O)c1cc(-c2cc(F)cc(F)c2)cc(-c2cc(F)cc(F)c2)c1` (centres unmarked) [Compound 38, 4-Methyl-2-(3,5,3″,5″-tetrafluoro-[1,1′;3′,1″]terphenyl-5′-yl)-pentanoic acid], the inhibition at 3 µM worked out at 53%.

As for `CC(C)CC(C(=O)O)c1cc(-c2ccc(C(F)(F)F)cc2)cc(-c2cccc(N(C)C)c2)c1` (centres unmarked) [Compound 49, 2-(3-Dimethylamino-4″-trifluoromethyl-[1,1′;3′,1″]terphenyl-5′-yl)-4-methyl-pentanoic acid], the inhibition at 3 µM was -17%.

Turning to `Cc1ccc(-c2cc(-c3ccc(C(F)(F)F)cc3)cc(C(CC(C)C)C(=O)O)c2)cc1` (centres unmarked) [Compound 11, 4-Methyl-2-(4-methyl-4″-trifluoromethyl-[1,1′;3′,1″]terphenyl-5′-yl)-pentanoic acid], the inhibition at 3 µM stood at 68%.

Turning to `C=C(C)CC(C(=O)O)c1cc(-c2ccc(C(F)(F)F)cc2)cc(-c2ccc(C(F)(F)F)cc2)c1` (centres unmarked) [Compound 25, 2-(4,4″-Bis-trifluoromethyl-[1,1′;3′,1″]terphenyl-5′-yl)-4-methyl-pent-4-enoic acid], the inhibition at 3 µM was determined as 82%.

As for `CC(C)CC(C(=O)O)c1cc(-c2ccc(C(F)(F)F)cc2)cc(-c2ccccc2C(F)(F)F)c1` (centres unmarked) [Compound 6, 2-(2,4″-Bis-trifluoromethyl-[1,1′;3′,1″]terphenyl-5′-yl)-4-methyl-pentanoic acid], the inhibition at 3 µM came out at 65%.

Consider `CC(C)CC(C(=O)O)c1cc(-c2ccc(C(F)(F)F)cc2)cc(-c2ccccc2F)c1` (centres unmarked) [Compound 8, 2-(2-Fluoro-4″-trifluoromethyl-[1,1′;3′,1″]terphenyl-5′-yl)-4-methyl-pentanoic acid], for which the inhibition at 3 µM was -1%.

For the compound `COc1ccc(-c2cc(-c3ccc(C(F)(F)F)cc3)cc(C(CC(C)C)C(=O)O)c2)cc1` (centres unmarked) [Compound 24, 2-(4-Methoxy-4″-trifluoromethyl-[1,1′;3′,1″]terphenyl-5′-yl)-4-methyl-pentanoic acid], the inhibition at 3 µM stood at 53%.

With `CC(C)CC(C(=O)O)c1cc(-c2ccc(C(F)(F)F)cc2)cc(-c2ccc(S(C)(=O)=O)cc2)c1` (centres unmarked) [Compound 21, 2-(4-Methanesulfonyl-4″-trifluoromethyl-[1,1′;3′,1″]terphenyl-5′-yl)-4-methyl-pentanoic acid], the inhibition at 3 µM was 46%.

The values above are taken from patent publication US8106236B2, “Triaryl compounds and derivates thereof” (Ortho-McNeil Pharmaceutical, Inc., priority 2006, dated 2012).
